Data reported in US10864245B2, “Activation and expansion of NKG2C+ NK cells” (Deutsches Rheuma-Forschungszentrum Berlin, priority 2018, dated 2020).

Legend:
adaptive NKG2C+ NK cells = assay: Stimulation of purified NK cells with peptide-pulsed RMA-S/HLA-E (effector functions); type: cell-based, human; conditions: RMA-S/HLA-E pulsed with 300 μM peptide; 6 h; NK cells from healthy HCMV+ individuals
Experimental: HLA-E surface stabilization was induced as described previously^30. In brief, 300 μM synthetic peptides (Peptides&Elephants) were added to target cells cultured at a density of 2×10^6 cells/ml in serum-free Opti-MEM (ThermoFisher) and incubated for 16 h at 37° C. Peptide-pulsed cells were either stained for FACS analysis of HLA-E surface expression or washed with complete media and used in co-cultures. For pulse-chase experiments, cells were pulsed as above, washed twice, and resuspended in Opti-MEM without peptide. HLA-E surface expression was monitored by FACS analysis at indicated time points.
CD56^+ MACS-enriched cells were stained with viability dye, CD3, and CD56, FACS-sorted for viable CD3^−CD56^+ NK cells, and rested overnight in complete medium. Purified NK cells were stimulated by co-culture with peptide-pulsed (300 μM) irradiated (30 Gy) target cells at a 2:1 NK:target ratio for 6 h in the presence of 300 μM synthetic peptides.
For blocking experiments, rested FACS-sorted viable CD3^− CD56^dim NKG2A^− NKG2C+ NK cells were treated with 20 μg/ml IgG1 isotype control or anti-CD94 antibody (both RnD Systems) for 15 min prior to start of the co-culture.

NKG2C+ NK cells = assay: In vitro culture of CD56dim NK cells from HCMV− donors with peptide-pulsed targets and IL-15 (proliferation, accumulation); type: cell-based, human; conditions: RMA-S/HLA-E/LFA-3, IL-15, IL-12/18 during initial 20 h, 14 days
Experimental: CD56^+ MACS-enriched cells from HCMV^− donors were stained with viability dye, CD3, and CD56, FACS-sorted for viable CD3^− CD56^dim NK cells, and rested overnight in complete medium. Purified CD56^dim NK cells were labeled with 2 μM CellTrace violet (Thermo Fisher) according to the manufacturer's instructions. 5×10^5 labeled NK cells were cultured with 1×10^5 peptide-pulsed […] irradiated (30 Gy) target cells in complete medium containing 10 ng/ml IL-15 (Miltenyi Biotec) in U-bottom 96-well plates (Greiner Bio-One) for the indicated times. Complete medium containing IL-15 was replaced every third to fourth day. On days 4, 7, and 11 of culture, 1×10^5 fresh peptide-pulsed irradiated target cells were added to the cultures.
Where indicated, 10 ng/ml IL-12 (Miltenyi Biotec) and 100 ng/ml IL-18 (MBL) were added at the start of co-cultures. After 20 h of culture, the cells were washed 3 times and resuspended in complete medium containing 10 ng/ml IL-15. Control wells without IL-12/18 were treated equally. To determine NKG2C+ NK cell numbers per μl of culture medium, CountBright Absolute Counting Beads (ThermoFisher) were used according to the manufacturer's instructions.
Proliferation and replication indices^60 of NKG2C+ cells were calculated using the proliferation analysis platform included in FlowJo v9.9 (FlowJo LLC) and normalized to those of NKG2C^− cells in the same condition.

In the case of VMAPRTLVL, the “TNF, IFN-γ, CD107a, and CCL3 expression by adaptive NKG2C+ NK cells” value (adaptive NKG2C+ NK cells) is reported as “differentially triggered” and the “NKG2C+ NK-cell absolute counts and frequencies” value (NKG2C+ NK cells) is reported as “increase of NKG2C+ NK-cell absolute counts as well as frequencies”.
